Among the data in ChEMBL document CHEMBL1129937, “Synthesis and dihydrofolate reductase inhibitory activities of 2,4-diamino-5-deaza and 2,4-diamino-5,10-dideaza lipophilic antifolates” (J Med Chem, 1997) are IC50 values, retold here.

Experiment [1] addresses T1, Dihydrofolate reductase (Pneumocystis carinii, UniProt P16184).
T1 sequence (P16184 whole entry): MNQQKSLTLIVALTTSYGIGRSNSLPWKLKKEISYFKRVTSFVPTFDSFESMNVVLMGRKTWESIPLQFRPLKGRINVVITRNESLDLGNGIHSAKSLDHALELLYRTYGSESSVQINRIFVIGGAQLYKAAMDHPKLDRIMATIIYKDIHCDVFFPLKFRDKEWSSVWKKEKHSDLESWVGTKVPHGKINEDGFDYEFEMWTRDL
Description: Inhibitory concentration against Dihydrofolate reductase from Pneumocystis carinii (pc)

The target in experiment [2] is T2, Dihydrofolate reductase (Rattus norvegicus, UniProt Q920D2).
T2 sequence (Q920D2 whole entry): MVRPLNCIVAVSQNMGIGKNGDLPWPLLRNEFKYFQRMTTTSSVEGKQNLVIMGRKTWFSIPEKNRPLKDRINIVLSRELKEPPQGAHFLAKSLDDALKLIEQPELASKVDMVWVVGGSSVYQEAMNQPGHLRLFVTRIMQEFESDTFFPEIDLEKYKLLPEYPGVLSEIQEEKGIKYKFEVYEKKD
Description: Inhibitory concentration against Dihydrofolate reductase from Rat liver (rl)

Experiment [3] has as its target T3, Bifunctional dihydrofolate reductase-thymidylate synthase (Toxoplasma gondii, UniProt Q07422).
T3 sequence (Q07422 whole entry): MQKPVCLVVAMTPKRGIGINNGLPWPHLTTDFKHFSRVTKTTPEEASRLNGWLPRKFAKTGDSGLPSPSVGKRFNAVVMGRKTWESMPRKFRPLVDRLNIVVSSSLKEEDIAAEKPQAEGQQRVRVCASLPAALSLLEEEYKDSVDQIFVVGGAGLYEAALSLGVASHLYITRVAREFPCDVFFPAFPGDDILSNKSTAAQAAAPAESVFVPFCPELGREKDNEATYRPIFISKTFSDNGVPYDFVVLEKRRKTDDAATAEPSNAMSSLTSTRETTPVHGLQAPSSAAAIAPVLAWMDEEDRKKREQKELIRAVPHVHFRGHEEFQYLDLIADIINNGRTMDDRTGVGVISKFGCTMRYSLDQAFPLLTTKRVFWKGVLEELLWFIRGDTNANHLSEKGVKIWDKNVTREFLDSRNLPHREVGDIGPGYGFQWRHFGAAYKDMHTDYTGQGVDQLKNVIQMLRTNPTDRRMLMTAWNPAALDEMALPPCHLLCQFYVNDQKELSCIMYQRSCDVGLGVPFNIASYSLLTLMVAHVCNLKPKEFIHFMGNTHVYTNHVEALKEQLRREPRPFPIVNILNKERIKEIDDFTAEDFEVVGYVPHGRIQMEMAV
Description: Inhibitory concentration against Dihydrofolate reductase from Toxoplasma gondii (tg)

As usually defined, the IC50 is the point on the concentration scale where inhibition reaches its midpoint. A lower IC50 goes with inhibition by little substance. For `COc1ccc(/C=C/c2cnc3nc(N)nc(N)c3c2)cc1`, the figures for the IC50 in experiment [1], in experiment [2] and in experiment [3] were 5300 nM, 11800 nM and 1500 nM, respectively.

Regarding `COc1ccc(CCc2cnc3nc(N)nc(N)c3c2)cc1OC`, the IC50 in experiment [1] was 1400 nM; in experiment [2] it was 610 nM; in experiment [3] it was 200 nM.

`COc1cc(N(C=O)Cc2cnc3nc(N)nc(N)c3c2)cc(OC)c1OC`: the IC50 came to 18500 nM in experiment [1], 7400 nM in experiment [2] and 1100 nM in experiment [3].

Consider `COc1cc(N(C)Cc2cnc3nc(N)nc(N)c3c2)cc(OC)c1OC`, for which, in experiment [2], the IC50 turned out to be 280 nM.

`COc1ccc(CCC2CNc3nc(N)nc(N)c3C2)cc1OC` (stereo unspecified): the IC50 in experiment [2] was 2100 nM; in experiment [3], 1100 nM.

Take `COc1ccc(/C=C/c2cnc3nc(N)nc(N)c3c2)cc1OC`: the IC50 worked out at 2600 nM in experiment [1], 2100 nM in experiment [2] and 1400 nM in experiment [3].

On to `COc1cc(NCc2cnc3nc(N)nc(N)c3c2)cc(OC)c1OC`, for which the IC50 in experiment [2] came to 1900 nM; in experiment [3] it was 300 nM.

`COc1ccc(CCc2cnc3nc(N)nc(N)c3c2)cc1`: the IC50 turned out to be 290 nM in experiment [1], 260 nM in experiment [2] and 250 nM in experiment [3].

Consider `COc1cc(CCc2cnc3nc(N)nc(N)c3c2)cc(OC)c1OC`, for which the results for the IC50 in experiment [2] and in experiment [3] were 1140 nM and 200 nM, respectively.

For `COc1cc(/C=C/c2cnc3nc(N)nc(N)c3c2)cc(OC)c1OC`, the results for the IC50 in experiment [1], in experiment [2] and in experiment [3] were over 5000 nM, 12900 nM and 1400 nM, respectively.

Consider `COc1cc(CCC2CNc3nc(N)nc(N)c3C2)cc(OC)c1OC` (stereo unspecified), for which the IC50 is 61700 nM in experiment [1], 6100 nM in experiment [2] and 470 nM in experiment [3].

For the molecule `CCN(Cc1cnc2nc(N)nc(N)c2c1)c1cc(OC)c(OC)c(OC)c1`, the figures for the IC50 in experiment [1], in experiment [2] and in experiment [3] were 190 nM, 120 nM and 49 nM, respectively.
